This is an account of results in publication PMC8386742, “Discovery of N-aryl sulphonamide-quinazoline derivatives as anti-gastric cancer agents in vitro and in vivo via activating the Hippo signalling pathway” (Journal of Enzyme Inhibition and Medicinal Chemistry, 2021).

Molecules are shown by their SMILES.

One data set concerns PC-3 cells. Put plainly: MTT antiproliferative assay, PC-3 cells. The class given is cell-based, human. Conditions: Homo sapiens, PC-3, exposure for 48 h. Here is the method:
(§1) The in vitro antiproliferative activities of new target compounds 6a–6g, 9a–9i, 10a–10j, 11a–11j, and 14a–14d were evaluated against four human cancer cell lines (MGC-803, PC-3, HCT-116, and MCF-7) using MTT assay and 5-FU as a positive drug. The following Tables 1–[4] depicted the results of in vitro antiproliferative activity.
(§2) Cell lines used were cultured in humidified incubator in a humidified atmosphere of 5% CO2 and 95% air. The RPMI-1640 medium was supplemented with 10% foetal bovine serum, penicillin (100 U/ml) and streptomycin (0.1 mg/ml).
(§3) Cell lines were seeded into 96-well plates and incubated for 24 h. Then cells were treated with different concentrations of compounds. And after another 48 h, MTT reagent (20 μL per well) was added to each well and then incubated at 37 °C for 4 h. After the suspension was discarded, formazan was then dissolved with DMSO. Absorbencies of formazan solution were measured at 490 nm. The IC50 values of tested compounds were calculated by SPSS version 17.0.
In general terms: Tetrazolium dyes change colour on reduction, which living cells bring about.

For another data set, the system named is HGC-27 cells. Briefly: MTT antiproliferative assay, HGC-27 gastric cancer cells. It is filed as cell-based. The protocol: (§4) Furthermore, MGC-803 cells were more sensitive to the compounds than HCT-116, PC-3 cells MCF-7 cells. Moreover, we chose two other common gastric cancer cell lines (HGC-27 and SGC-7901) and another two normal cells GES-1 and HUEVC cells to examine for the inhibitory activity of compound 9i.
as §2, §3

A further data set concerns GES-1 cells. Briefly: MTT antiproliferative assay, GES-1 normal gastric epithelial cells. It is filed as cell-based.
Text: as §4
Since compound 9i presented high potency against cancer cells and MGC-803 cells was more sensitive to compound 9i, compound 9i, MGC-803, another two gastric cancer cells SGC-7901, HGC-27, and GES-1(normal gastric epithelial cells) were used for further detection. As shown in Figures 3(A,B), compound 9i inhibited three gastric cancer cell lines in the dose and time-dependent manners. The inhibition ratios of compound 9i against three gastric cancer cells were all above 50% after 48 h in the high dosage group. Moreover, MGC-803 and SGC-7901 cell lines were more sensitive and compound 9i inhibited over 65% cell viability with high dose treatment for 48 h.
as §2, §3

Another data set concerns HUEVC cells. Put plainly: MTT antiproliferative assay, HUEVC normal cells. It is filed as cell-based. Conditions: exposure for 48 h, non-cancer cell line. The protocol: as §4, §2, §3
Data set [1] concerns MGC-803 and SGC-7901 cells. Put plainly: Cell cycle distribution in gastric cancer cells. It is filed as cell-based. Conditions: 24 h. The text has this: Because of the potent inhibitory activity on cell viability of compound 9i, we next explored the effects of compound 9i on cell proliferation in MGC-803 and SGC-7901 cells.
Figure 6. Gastric cancer cell proliferation inhibition inhibited by 9i. Density ratios relative to β-Actin were shown on the top of each Western blotting band. (A,B) Cell growth curves of in MGC-803 and SGC-7901 cells after the treatment with indicated concentrations of 9i for different hours; (C,D). Gastric cancer cell colony formation, cells were treated for 7 days; (E) Cell cycle distribution of MGC-803 and SGC-7901 after the treatment with indicated concentrations of 9i for 24 h; (F,G) Cell cycle related proteins in gastric cancer cells after the treatment with indicated concentrations of 9i for 24 h.

The test system of the next data set is MCF-7 cells. Put plainly: MTT antiproliferative assay, MCF-7 cells. The class given is cell-based, human. As to conditions: exposure for 48 h. Here is the method: as §1, §2, §3
Data set [2] deals with P38, ERK, AKT, mTOR and Wnt pathways. Put plainly: Activity on P38, ERK, AKT, mTOR and Wnt pathways in cells. Conditions: 20, 40 and 60 nM, 48 hours. It is filed as cell-based. The source says: In this work, compound 9i was design and synthesized by SAR study of our reported tertiary amide derivatives compound 1 and compound 2. Therefore, we tested the influence of compound 9i on tubulin polymerization and AKT/mTOR and ERK […]
influence on tubulin polymerization and P38, ERK, AKT, mTOR and Wnt pathways . […]
pathway. Therefore, we here reported N-sulfonamide-quinazoline derivatives as novel anti-gastric cancer agents via activating the Hippo signaling pathway in vitro and in […]
Supporting Figure S1. A. Activity of compound 9i on tubulin polymerization . Tubulin polymerization extracellular, concentrations of Paclitaxel, Colchicine and 9i were 3 μmol/L; Activity of compound 9i on P38, ERK, AKT, mTOR and Wnt pathways, cells were incubated with […]
(1 picture or pasted object on this page, not shown here)

For another data set, the system named is Hippo signalling pathway. Put plainly: Western blotting / mRNA of Hippo related proteins in MGC-803 and SGC-7901 cells. It is filed as cell-based. The text has this:
Phosphorylation of YAP is the process of YAP inactivation. YAP protein is inactivated (phosphorylated) by Hippo cascade pathway in cells. […] We also investigated the influence of 9i on upstream signal-regulated molecules of the Hippo pathway. […] Transcription factor TEAD interacts with YAP to express downstream substrates, the level of TEAD was not changed by compound 9i (Figures 4(A,B)). Yap entering the nucleus is a key step of substrates expression. With the treatment of compound 9i, the level of YAP inside nuclear was decreased (Figure 4(C)).
Figure 4. Influence of 9i on the Hippo signalling pathway in two gastric cancer cells. Density ratios relative to its loading control protein (β-Actin/LaminB1/GAPDH) were shown on the top of each Western blotting band. (A) The levels of Hippo related proteins, cells were treated with indicated concentrations of 9i for 12 h; (B) The levels of Hippo related proteins in different hours after the treatment with 450 nM of 9i; (C) Level of YAP in the cytoplasm and nuclear, cells were treated for 12 h with 450 nM of 9i; (D) Levels of Bcl-2 and c-Myc in MGC-803 cells after the treatment with 450 nM of 9i for different hours; (E) mRNA levels of Bcl-2 and c-My in MGC-803 cells after the treatment with 450 nM of 9i 12 h. Data were presented as mean ± SD.
2 gastric cancer cells were seeded in dishes and treated with 9i or DMSO. After 48 h, MGC-803 and SGC-7901 cells were collected and then lysed. The denatured lysates of each groups were electrophoretic separated in SDS-PAGE. Proteins were then transferred onto PVDF membranes from gels. After blocking for 2 h, membranes were incubated with primary antibodies conjugation. Then, the membranes were washed and incubated with 2nd antibodies. At last, specific proteins were detected.
Background: A western blot detects proteins with antibodies after separation by electrophoresis.

Consider `COc1ccc(S(=O)(=O)N(Cc2nc(C)c3ccccc3n2)c2cc(OC)c(OC)c(OC)c2)cc1` [Compound 9i, 4-Methoxy-N-((4-methylquinazolin-2-yl)methyl)-N-(3,4,5-trimethoxyphenyl) benzene-sulfonamide], for which the half-maximal inhibitory concentration (IC50) (usually the concentration that gives 50% inhibition) in the data set with PC-3 cells came out at 1040 ± 130 nM; in the data set on HGC-27 cells (Homo sapiens, HGC-27, MTT, exposure for 48 h), 458 nM; in the data set on GES-1 cells (Homo sapiens, GES1, MTT, exposure for 48 h, non-cancer cell line) it was 894 nM; in the data set with HUEVC cells it was 26.2 µM; in the data set with MCF-7 cells (Homo sapiens, MCF7, 48 h) it was 816 nM; in the data set on MCF-7 cells, 810 ± 60 nM. In addition, in the data set on HGC-27 cells (high dosage group, 48 h), the “inhibition ratio against HGC-27 cells” value is recorded as “above 50%”. For the same compound, in the data set with GES-1 cells (normal gastric epithelial cells), the “cytotoxicity towards GES-1 cells” value was “low cytotoxicity”. The cell cycle arrest result in data set [1] is “remarkable and dose-dependent G2/M arrest”. Besides, the “influence on P38, ERK, AKT, mTOR and Wnt pathways” value in data set [2] is recorded as “no strong influence”. Besides, the “MST1 and SAV levels” value in the data set on Hippo signalling pathway (MGC-803 and SGC-7901 cells) is “did not show an obvious change”. The “level of TEAD” value in the data set on Hippo signalling pathway (MGC-803 and SGC-7901 cells) is “not changed”. Besides, the “level of YAP” value in the data set on Hippo signalling pathway (MGC-803 and SGC-7901 cells) is “reduced level of YAP”. Moreover, in the data set on Hippo signalling pathway (MGC-803 and SGC-7901 cells), the p-LATS level result was “up-regulated”. Moreover, the “phosphorylation of YAP” value in the data set with Hippo signalling pathway (MGC-803 and SGC-7901 cells, dose and time-dependent) is “up-regulated the phosphorylation of YAP”. Besides, the “Bcl-2 and c-Myc expression” value in the data set with Hippo signalling pathway (two gastric cancer cells, mRNA and protein) was “down-regulated at mRNA and protein levels”.
